Data on one compound can be found in ChEMBL document CHEMBL5126592, “Design, synthesis and activity against drug-resistant bacteria evaluation of C-20, C-23 modified 5-O-mycaminosyltylonolide derivatives” (Eur J Med Chem, 2022).

In series [1] the test system is Escherichia coli. Briefly: Antibacterial activity against Escherichia coli ATCC 25922 at pH 8.4 incubated for 16 to 20 hrs by broth microdilution method. Conditions: time 16-20 hrs. It is filed as functional.
Series [2] has as its system Staphylococcus aureus. Briefly: Antibacterial activity against Staphylococcus aureus ATCC 29213 at pH 7.4 incubated for 16 to 20 hrs by broth microdilution method. The series is classed as functional. Conditions: time 16-20 hrs.
Series [3] can be described thus: Genotoxicity in Salmonella typhimurium TA1537 assessed as number of revertants at 4x10^-5 mg/plate incubated for 72 hrs in absence of liver S9 fraction by Ames test (reference value: 22.67 +/- 2.52). Conditions: salmonella enterica subsp. enterica serovar typhimurium, s9, 72 h. It is filed as toxicity.
Series [4] concerns Escherichia coli. Briefly: Antibacterial activity against Escherichia coli ATCC 25922 incubated for 16 to 20 hrs using 10^3 CFU/ml bacterial inoculum by broth microdilution method. It is filed as functional. Conditions: time 16-20 hrs.
Series [5] concerns Escherichia coli. Briefly: Antibacterial activity against Escherichia coli ATCC 25922 incubated for 16 to 20 hrs in presence of 5% foetal bovine serum by broth microdilution method. The series is classed as functional. Conditions: time 16-20 hrs.
Series [6] is described as follows: Genotoxicity in Salmonella typhimurium TA1537 assessed as number of revertants at 1.6x10^-6 mg/plate incubated for 72 hrs in absence of liver S9 fraction by Ames test (reference value: 22.67 +/- 2.52). It is filed as toxicity. Conditions: salmonella enterica subsp. enterica serovar typhimurium, s9, 72 h.
A short description of series [7]: Toxicity in Kunming mouse infected with Staphylococcus aureus ATCC 25923 assessed as normal alveolar size and morphology at 20 to 40 mg/kg, iv measured after 1 hr by hematoxylin and eosin staining based microscopic analysis. It is filed as organism-based. The note with it: in vivo, dose 20-40 mg/kg.
A short description of series [8]: Genotoxicity in Salmonella typhimurium TA98 assessed as number of revertants at 8x10^-6 mg/plate incubated for 72 hrs in presence of liver S9 fraction by Ames test (reference value: 43.67+/- 7.1). It is filed as toxicity, subcellular. The note with it: salmonella enterica subsp. enterica serovar typhimurium, s9, 72 h.
Series [9] concerns Staphylococcus aureus. Briefly: Antibacterial activity against Staphylococcus aureus ATCC 29213 at pH 8.6 incubated for 16 to 20 hrs in presence of 50% foetal bovine serum by broth microdilution method. It is filed as functional. Conditions: time 16-20 hrs.
Series [10] can be described thus: Genotoxicity in Salmonella typhimurium TA1535 assessed as number of revertants at 4x10^-5 mg/plate incubated for 72 hrs in absence of liver S9 fraction by Ames test (reference value: 14.33 +/- 0.58). The series is classed as toxicity. Conditions: salmonella enterica subsp. enterica serovar typhimurium, s9, 72 h.
Series [11] relates to Staphylococcus aureus. Briefly: Ratio of MBC to MIC for Staphylococcus aureus ATCC 29213. It is filed as functional.
For series [12], the system named is Staphylococcus aureus. The series can be described thus: Antibacterial activity against Staphylococcus aureus ATCC 29213 at pH 8.6 incubated for 16 to 20 hrs in presence of 10% foetal bovine serum by broth microdilution method. Conditions: time 16-20 hrs. It is filed as functional.
Series [13] deals with Escherichia coli. The series can be described thus: Ratio of MBC to MIC for Escherichia coli ATCC 25922. It is filed as functional.
The nature of series [14]: Genotoxicity in Salmonella typhimurium TA98 assessed as number of revertants at 1.6x10^-6 mg/plate incubated for 72 hrs in presence of liver S9 fraction by Ames test (reference value: 43.67+/- 7.1). The note with it: salmonella enterica subsp. enterica serovar typhimurium, s9, 72 h. It is filed as toxicity, subcellular.

Each structure is given as a SMILES string. ≈ marks a conversion by molar mass, not a printed value.

In the case of `CC[C@H]1OC(=O)C[C@@H](O)[C@H](C)[C@@H](O[C@@H]2O[C@H](C)[C@@H](O)[C@H](N(C)C)[C@H]2O)[C@@H](CCN(C)Cc2cn(-c3cnc4ccccc4c3)nn2)C[C@@H](C)C(=O)/C=C/C(C)=C/[C@@H]1CN1CCCCCC1`, the MIC is 0.25 µg/mL (≈ 0.277 µM) in the series with Escherichia coli [1]; 0.25 µg/mL (≈ 0.277 µM) in the series on Staphylococcus aureus [2]; 0.25 µg/mL (≈ 0.277 µM) in the series with Escherichia coli [4]; 1 µg/mL in the series on Escherichia coli [5]; 2 µg/mL with Staphylococcus aureus [9]; 0.5 µg/mL in the series on Staphylococcus aureus [12]. Moreover, the Activity in [3] is listed as 19.67; in series [6] it was 14.33; in series [7] it was “Non-Toxic”; in series [8], 45.67; in series [10] it was 6.33; in series [14], 42.33. Also, the Ratio in the series on Staphylococcus aureus [11] and with Escherichia coli [13] was 2 each time.
